Measured values published in patent US12491170B2, “Stable treprostinil prodrugs” (United Therapeutics Corporation, priority 2020, dated 2025).

How the values were obtained:
[1] = Plasma stability, human plasma; format: in vitro ADME
Protocol: (§1) Studies were carried out in mixed-gender human plasma male Sprague-Dawley rat plasma, and male Beagle dog plasma. All plasma was obtained from Bioreclamation and collected on K2EDTA. Plasma was adjusted to pH 7.4 prior to initiating the experiments. DMSO stocks were first prepared for the test articles. […] The vials were kept in a benchtop Thermomixer® for the duration of the experiment. […] Samples were stored at 4° C. until the end of the experiment. After the final time point was sampled, the plate was mixed and then centrifuged at 3000 rpm for 10 minutes.

[2] = Plasma stability, rat plasma; format: in vitro ADME, Sprague-Dawley rat
Protocol: as §1

[3] = dog
PGE2 receptor 1 (EP1) = target: T1, PGE2 receptor 1 (EP1) (Homo sapiens, UniProt P34995); assay: EP1 receptor calcium agonist assay (HEK293T cells); format: cell-based; design: key to EC50 Fold Different from Treprostinil, EP1 Receptor: NC = too inactive to realistically calculate; settings: Table 18; * partial agonists or odd dose-response curves
T1 sequence (P34995 1-402): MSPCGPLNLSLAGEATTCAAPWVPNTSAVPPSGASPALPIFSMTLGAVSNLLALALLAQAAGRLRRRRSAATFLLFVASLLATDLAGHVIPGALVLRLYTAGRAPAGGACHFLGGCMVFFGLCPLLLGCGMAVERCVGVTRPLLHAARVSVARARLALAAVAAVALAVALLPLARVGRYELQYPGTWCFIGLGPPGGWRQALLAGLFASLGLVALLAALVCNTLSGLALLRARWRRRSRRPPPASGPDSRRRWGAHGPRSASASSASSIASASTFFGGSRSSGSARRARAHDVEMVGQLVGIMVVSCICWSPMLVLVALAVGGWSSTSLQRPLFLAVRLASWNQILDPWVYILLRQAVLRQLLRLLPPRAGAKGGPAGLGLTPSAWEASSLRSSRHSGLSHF
Protocol: Calcium assay kit: Multiscreen™ Calcium 1.0 No Wash Kit (Multispan, Inc., Cat #MSCA01-1)
• EP1 Calcium and DP1 cAMP Assays: HBSS plus 20 mM HEPES • EP2 and IP1 cAMP Assays: 1 mM IBMX in HBSS plus 20 mM HEPES Instruments: FlexStation III (Molecular Devices) and FLIPR 384 (Molecular Devices)
Cells were thawed from frozen cells and resuspended in assay buffer at desired concentrations. cAMP or Calcium assays were performed according to the manufacturer's protocol using Multiscreen™ TR-FRET cAMP 1.0 No Wash Assay Kit or Multiscreen™ Calcium 1.0 No Wash Kit.
Calcium Assay: Cells were seeded in a 384-well plate at an appropriate density. The calcium assay was conducted according to the manufacturer's protocols (Multiscreen Calcium 1.0 No Wash Assay Kit). The calcium dye loading buffer was added to the cells and incubated for 1 hour at 37° C. For agonist mode, cells were injected with Iloprost control agonist or test compound by FLIPR and calcium mobilization was monitored for 180 seconds with compound injected into the wells at the 19th second. Fluorescent emissions were read at 525 nm with excitation at 490 nm in a FLIPR 384 instrument (Molecular Devices).
Calcium Assay: Calcium assay results are expressed as “RFU” as defined in figure below. Data are represented in Mean±SEM. Dose-response curves were fitted using “Sigmoidal dose-response (variable slope)” function in GraphPad Prism 6. EC50 values were calculated based on the fitted curves.
Prostaglandin receptor activity assessments with treprostinil and treprostinil analogues have been conducted, and a historical, positive control agonist for these receptors, iloprost (for IP, EP2 and EP1) or PGD2 (for DP1), was also included. These studies used cell lines overexpressing either human IP, EP2 or DP1, or EP1 receptors, and following incubation with varying concentrations of compounds, cAMP levels were measured using Fluorescence Resonance Energy Transfer (FRET). The 665/620 (acceptor/donor emission signals) ratio is inversely proportional to the concentration of cAMP.

[4] = Hydrolysis of prodrugs to treprostinil at pH 6, 7, 8 and 40 C; format: physicochemical
From the text: Tables 24, 25 and 26 present data for hydrolysis of selected treprostinil prodrugs at pH 6, 7 and 8, respectively, and 40 C.

[5] = Plasma stability, dog plasma; format: in vitro ADME, Beagle dog
Protocol: as §1

[6] = Stability in simulated intestinal fluid; format: in vitro ADME
Protocol: Studies were carried out in simulated intestinal fluid (SIF). SIF was prepared by dissolving 6.8 g of KH2PO4 in 250 mL of water, mixing, and then adding 77 mL of 0.2 N NaOH and […] of water. […] DMSO stocks were first prepared for the test articles. […] The vials were kept in a benchtop Thermomixer® for the duration of the experiment. A separate tube was dosed for each time point in each matrix. […] Samples were mixed and then immediately stored at 4° C. until the end of the experiment. After the final time point was sampled, the plate was mixed and then centrifuged at 3000 rpm for 10 minutes.

Half-life ([1]; 1 μM, 37° C.): >2 h
Percent Remaining 0 min ([1]; 1 μM, 37° C., 0 min): 100%
Percent Remaining 15 min ([1]; 1 μM, 37° C., 15 min): 92.4%
Percent Remaining 30 min ([1]; 1 μM, 37° C., 30 min): 102%
Percent Remaining 60 min ([1]; 1 μM, 37° C., 60 min): 93.3%
Percent Remaining 120 min ([1]; 1 μM, 37° C., 120 min): 103%
Formation of Treprostinil, Concentration 0 min ([1]; prodrug dosed 1 μM, 0 min): 0 µM
Formation of Treprostinil, Concentration 15 min ([1]; prodrug dosed 1 μM, 15 min): 0 µM
Formation of Treprostinil, Concentration 30 min ([1]; prodrug dosed 1 μM, 30 min): 0 µM
Formation of Treprostinil, Concentration 60 min ([1]; prodrug dosed 1 μM, 60 min): 0 µM
Formation of Treprostinil, Concentration 120 min ([1]; prodrug dosed 1 μM, 120 min): 0 µM
Half-life ([2]; 1 μM, 37° C.): 1.7 h
Percent Remaining 0 min ([2]; 1 μM, 37° C., 0 min): 100%
Percent Remaining 15 min ([2]; 1 μM, 37° C., 15 min): 98.3%
Percent Remaining 30 min ([2]; 1 μM, 37° C., 30 min): 80.3%
Percent Remaining 60 min ([2]; 1 μM, 37° C., 60 min): 69.3%
Percent Remaining 120 min ([2]; 1 μM, 37° C., 120 min): 45.0%
Formation of Treprostinil, Concentration 0 min ([2]; prodrug dosed 1 μM, 0 min): 0 µM
Formation of Treprostinil, Concentration 15 min ([2]; prodrug dosed 1 μM, 15 min): 0.00392 µM
Formation of Treprostinil, Concentration 30 min ([2]; prodrug dosed 1 μM, 30 min): 0.0101 µM
Formation of Treprostinil, Concentration 60 min ([2]; prodrug dosed 1 μM, 60 min): 0.0331 µM
Formation of Treprostinil, Concentration 120 min ([2]; prodrug dosed 1 μM, 120 min): 0.0768 µM
AUC [3]: 71.85 µmol·min/L
EC50 Fold Different from Treprostinil, EP1 Receptor (PGE2 receptor 1 (EP1)): NC
Hydrolysis to treprostinil, % Area, t = 1 week ([4]; pH 6, 40 C.): 0.00 % Area
Hydrolysis to treprostinil, % Area, t = 2 weeks ([4]; pH 6, 40 C.): 0.00 % Area
Hydrolysis to treprostinil, % Area, t = 3 weeks ([4]; pH 6, 40 C.): 0.00 % Area
Hydrolysis to treprostinil, % Area, t = 1 week ([4]; pH 7, 40 C.): 0.00 % Area
Hydrolysis to treprostinil, % Area, t = 2 weeks ([4]; pH 7, 40 C.): 0.00 % Area
Hydrolysis to treprostinil, % Area, t = 3 weeks ([4]; pH 7, 40 C.): 0.00 % Area
Hydrolysis to treprostinil, % Area, t = 1 week ([4]; pH 8, 40 C.): 0.00 % Area
Hydrolysis to treprostinil, % Area, t = 2 weeks ([4]; pH 8, 40 C.): 0.00 % Area
Hydrolysis to treprostinil, % Area, t = 3 weeks ([4]; pH 8, 40 C.): 0.00 % Area
Half-life ([5]; 1 μM, 37° C.): >2 h
Percent Remaining 0 min ([5]; 1 μM, 37° C., 0 min): 100%
Percent Remaining 15 min ([5]; 1 μM, 37° C., 15 min): 103%
Percent Remaining 30 min ([5]; 1 μM, 37° C., 30 min): 116%
Percent Remaining 60 min ([5]; 1 μM, 37° C., 60 min): 97.4%
Percent Remaining 120 min ([5]; 1 μM, 37° C., 120 min): 91.4%
Formation of Treprostinil, Concentration 0 min ([5]; prodrug dosed 1 μM, 0 min): 0 µM
Formation of Treprostinil, Concentration 15 min ([5]; prodrug dosed 1 μM, 15 min): 0 µM
Formation of Treprostinil, Concentration 30 min ([5]; prodrug dosed 1 μM, 30 min): 0 µM
Formation of Treprostinil, Concentration 60 min ([5]; prodrug dosed 1 μM, 60 min): 0 µM
Formation of Treprostinil, Concentration 120 min ([5]; prodrug dosed 1 μM, 120 min): 0 µM
Half-life ([6]; SIF pH 6.8 with pancreatin, 1 μM, 37° C.): >2 h
Percent Remaining 0 min ([6]; SIF pH 6.8 with pancreatin, 1 μM, 37° C., 0 min): 100%
Percent Remaining 15 min ([6]; SIF pH 6.8 with pancreatin, 1 μM, 37° C., 15 min): 97.2%
Percent Remaining 30 min ([6]; SIF pH 6.8 with pancreatin, 1 μM, 37° C., 30 min): 104%
Percent Remaining 60 min ([6]; SIF pH 6.8 with pancreatin, 1 μM, 37° C., 60 min): 93.6%
Percent Remaining 120 min ([6]; SIF pH 6.8 with pancreatin, 1 μM, 37° C., 120 min): 86.2%
Formation of Treprostinil, Concentration 0 min ([6]; SIF, prodrug dosed 1 μM, 0 min): 0 µM
Formation of Treprostinil, Concentration 15 min ([6]; SIF, prodrug dosed 1 μM, 15 min): 0 µM
Formation of Treprostinil, Concentration 30 min ([6]; SIF, prodrug dosed 1 μM, 30 min): 0 µM
Formation of Treprostinil, Concentration 60 min ([6]; SIF, prodrug dosed 1 μM, 60 min): 0.00415 µM
Formation of Treprostinil, Concentration 120 min ([6]; SIF, prodrug dosed 1 μM, 120 min): 0.0720 µM
SMILES: CCCCCC(CCC1C(OC(=O)CC)CC2Cc3c(cccc3OCC(=O)O)CC21)OC(=O)CC (stereo not shown) [Prodrug LXX, treprostinil dipropionate]
